Experimental data published in patent publication US11814652B2, “Pluripotent stem cell differentiation-promoting agent” (Oriental Yeast Co., Ltd., priority 2018, dated 2023).

What was measured:
iPS cells 201B7 strain [1] = assay: Cell number during ectodermal differentiation-induction in medium with β-NMN (Example 2); format: cell-based, human; settings: ectoderm differentiation-inducing medium containing β-NMN 0.1, 0.25 or 1 mM; 2nd, 4th, 7th day after seeding; versus medium not containing β-NMN
Method: The effect of β-NMN on the ectodermal differentiation-induction of the iPS cells was examined. The 201B7 strain was used as the iPS cells. The iPS cells were seeded in a 12-well plate coated with Matrigel (manufactured by Corning Incorporated) according to the manufacturer's protocol at 8×10^5 cells/well. The cells in the 12-well plate were cultured in a culture medium prepared by adjusting an ectodermal differentiation-inducing culture medium of “STEMdiff Trilineage Differentiation kit” (manufactured by STEMCELL Technologies) to have a final concentration of β-NMN of 0, 0.1, 0.25, or 1 mM, and a final concentration of Rock inhibitor of 10 μM for 1 day. From the 1st day after seeding, the medium was replaced every day with a culture medium obtained by removing the Rock inhibitor from the culture medium at the time of seeding. Cells of the 2nd, 4th or 7th day after seeding were sampled and the cell numbers were counted. The time-dependent change in cell number of each sample is shown in FIG. 2(A), and the cell numbers of the 7th day after seeding are shown in FIG. 2(B). As a result, the number of cells cultured in the ectoderm differentiation-inducing culture medium containing β-NMN was larger than the number of cells cultured in the medium not containing β-NMN.

iPS cells 201B7 strain [2] = assay: Cell number in ectodermal differentiation-induction after undifferentiated culture with β-NMN (Example 7); format: cell-based, human; settings: β-NMN 0.25 or 1 mM in culture medium for iPS cells before ectodermal differentiation-induction; 7th or 9th day after seeding; versus no β-NMN
Method: The effects of culturing in the presence of β-NMN before induction of differentiation on the ectodermal differentiation-induction of iPS cells was examined. As the iPS cells, the 201B7 strain was used. The iPS cells were cultured in a culture dish in the same manner as in Example 5, and when the confluent reached 70 to 80%, the iPS cells were detached from the culture dish and collected. The collected iPS cells were seeded at 3×10^5 cells/well in a 24-well plate coated with Matrigel (manufactured by Corning Incorporated) according to the manufacturer's protocol. The cells in the 24-well plate were cultured for 1 day in a culture medium prepared by removing β-NMN from the culture medium when culturing in the culture dish and adjusting to have a final concentration of Rock inhibitor of 10 μM. From the 1st day after seeding, the medium was replaced every day with a culture medium for ectodermal differentiation-induction of “STEMdiff Trilineage Differentiation kit” (manufactured by STEMCELL Technologies). The cells of the 7th or 9th day after seeding were sampled and the cell numbers were counted. The time-dependent change in cell number of each sample is shown in FIG. 12(A), and the cell number of each sample on the 9th day after seeding is shown in FIG. 12(B). […]

iPS cells 201B7 strain [3] = assay: Cell number in mesodermal differentiation-induction after undifferentiated culture with β-NMN (Example 6); format: cell-based, human; settings: β-NMN 0.25 or 1 mM in culture medium for iPS cells before mesodermal differentiation-induction; 7th day after seeding; versus no β-NMN
Method: The effects of culturing in the presence of β-NMN before induction of differentiation on the mesodermal differentiation-induction of iPS cells was examined. As the iPS cells, the 201B7 strain was used. The iPS cells were cultured in a culture dish in the same manner as in Example 5, and when the confluent reached 70 to 80%, the iPS cells were detached from the culture dish and collected. The collected iPS cells were seeded at 1×10^5 cells/well in a 24-well plate coated with Matrigel (manufactured by Corning Incorporated) according to the manufacturer's protocol. The cells in the 24-well plate were cultured for 1 day in a culture medium prepared by removing β-NMN from the culture medium when culturing in the culture dish and adjusting to have a final concentration of Rock inhibitor of 10 μM. From the 1st day after seeding, the medium was replaced every day with a culture medium for mesodermal differentiation-induction of “STEMdiff Trilineage Differentiation kit” (manufactured by STEMCELL Technologies). The cells of the 7th day after seeding were sampled and the cell numbers were counted. […]

[4] = tested on: human iPS cell strain 201B7; assay: RT-PCR of marker expression in iPS cells cultured in E6 differentiation-inducing medium with β-NMN (Example 1); format: cell-based; settings: 3rd and 7th day after seeding, β-NMN 0.25 or 1 mM in E6 medium, compared to cells cultured in the absence of β-NMN
Method: The effect of β-NMN on the differentiation of three germ layers of the iPS cells was examined. As the iPS cells, the human iPS cell strain 201B7 was used. A U-bottom shape 96-well plate “Nunclon Sphera 96 U-well plate” (manufactured by Thermo Fisher Scientific) was seeded with iPS cells at 10,000 cells/well, and cultured in an E6 culture medium (manufactured by Gibco) as a differentiation-inducing culture medium adjusted to have a final concentration of β-NMN of 0, 0.25 or 1 mM, and a final concentration of Rock inhibitor of 10 μM for 1 day. The Rock inhibitor was added to suppress Rho-dependent apoptosis. On the 1st and 5th days after seeding, the culture medium was replaced with a culture medium obtained by removing the Rock inhibitor from the culture medium at the time of seeding. Cells on the 3rd and 7th days after seeding were sampled and subjected to RT-PCR to investigate the expression levels of undifferentiated markers (Nanog, Sox2, Oct3/4, Lin28a, Klf4), endoderm markers (Sox17, AFP), mesoderm markers (MSX1, Brachyury) and ectodermal markers (PAX6). […] The expression level of each marker was evaluated by PCR using the obtained cDNA. […]

With `NC(=O)c1ccc[n+]([C@@H]2O[C@H](COP(=O)([O-])O)[C@@H](O)[C@H]2O)c1` [β-NMN, β-nicotinamide mononucleotide] the number of cells (iPS cells 201B7 strain [1]) was “larger”, the “number of the cells” value (iPS cells 201B7 strain [2]) was “larger” and the “number of the cells” value (iPS cells 201B7 strain [3]) was “larger”. The “expression level of each undifferentiated marker (Nanog, Sox2, Oct3/4, Lin28a, Klf4)” value [4] was “decreased” and the “expression level of the differentiated marker (Sox17, AFP, MSX1, Brachyury, PAX6)” value [4] was “increased”.
